Results published in EPA's aquatic toxicity sets.

Test system: Tetrahymena pyriformis
Assay: 48 h IGC50 (-log10 mol/L); higher = more toxic

SMILES	48 h IGC50 (-log10 mol/L)
CCCCCCC(O)CCC (centres undefined)	3.85
CS(C)(=O)=O	0.8
CCOC(=O)C(Cl)C(=O)OCC	3.63
CCCCCC1CCCC(=O)O1 (centres undefined)	2.92
NNC=O	2.13
Cc1cc(C)cc(N)c1	2.64
CCCCC(O)CO (centres undefined)	1.73
CCOC(=O)C(Br)CBr (centres undefined)	5.21
CCCCC(=O)OC	2.15
CC(=O)c1ccc(C)[nH]1	2.17
CCCCc1ccco1	3.44
O=[N+]([O-])c1ccc(F)c(F)c1F	4.89
OCC(O)CBr (centres undefined)	1.79
OCCCCCCCCCl	3.49
CCCC(N)CO (centres undefined)	2.33
CCc1ccc(Br)cc1	3.67
CCCC(O)Cc1ccccc1 (centres undefined)	3.16
O=[N+]([O-])c1ccc(Nc2ccccc2)cc1	4.89
O=[N+]([O-])c1cc(Br)c(O)c(Br)c1	4.36
Cc1c(O)ccc(O)c1C	4.41
Cc1ccc2ccccc2n1	3.47
CC1=CC(=O)c2c(O)cccc2C1=O	5.2
CCCCCCCCCCOC(C)=O	4.88
CCCCOC(=O)CC	3.17

SMILES	48 h IGC50 (-log10 mol/L)
CCCCCCOc1ccc(O)cc1	4.64
CCN(CC)C(=O)CCl	3.52
COC(=O)C=C(C)C	1.94
CC(=S)Nc1ccccc1	2.99
CCCNC(N)=S	2.31
O=Cc1cccc([N+](=O)[O-])c1O	3.87
CC(C)(O)C#CC(C)(C)O	1.42
CCCCOC(=O)c1ccccc1	3.92
CCCC(=O)O	2.43
CCc1cccc2ccccc12	3.89
Nc1ccccc1Cl	2.83
OCc1cccc(O)c1	1.98
CCC(=O)c1ccco1	2.23
C=CCOC(=O)CCC	2.37
O=C(O)CCCCCC(=O)O	2.42
O=C(OCc1ccccc1)c1ccc(O)cc1	4.55
Cc1cc(Br)cc(Cl)c1O	4.28
OCCOc1cccc(O)c1	2.13
COC(=O)c1ccc(C(C)(C)C)cc1	3.92
CNc1ccc(C(=O)OC)cc1	3.31
NC(=O)CCl	3.04
CCNc1ccccc1	3.07
CC(C)CCCO	2.36
C=COC(=O)/C=C/C	2.85

SMILES	48 h IGC50 (-log10 mol/L)
CCC(=O)c1ccccc1	2.93
Cc1c(O)c(Br)c(Br)c(Br)c1Br	5.57
CCCCOc1ccc(C=O)cc1	3.72
CC(C)(C)c1cc([N+](=O)[O-])c(O)c([N+](=O)[O-])c1	4.8
C=COC(=O)C(=C)C	2.38
COc1ccc(C=O)cc1	2.95
CCCCC(=O)C(C)=O	3.04
COc1cc(CCO)ccc1O	2.82
CCOC(=O)CCCCCCC(=O)OCC	3.7
OCc1ccccc1I	3.33
CCCCCCCCC(=O)O	3.35
Clc1cccc(Br)c1Cl	4.3
Nc1c([N+](=O)[O-])cccc1[N+](=O)[O-]	3.84
O=Cc1cc(Br)c(O)c(Br)c1	3.89
O=C(CBr)Oc1ccccc1	5.08
NCc1ccc(Cl)cc1	3.16
CCOC(=O)C#Cc1ccccc1	4.67
O=[N+]([O-])c1ccc(O)c(O)c1	4.17
c1csc(-c2cccs2)c1	4.04
CC(C)COC(=O)C(C)C	2.41
c1ccc2ccccc2c1	2.88
CC(C)(CN)CO	2.08
Nc1c(Cl)c(Cl)cc(Cl)c1Cl	4.76
CCCNCCO	1.32

SMILES	48 h IGC50 (-log10 mol/L)
OCCc1cccc2ccccc12	3.27
CCCCCCCCC(O)CCC (centres undefined)	4.65
O=Cc1cc2ccccc2c2ccccc12	4.71
Nc1c(Br)cc(Br)cc1[N+](=O)[O-]	4.62
CCCOC(=O)CCl	4.18
C=CCOC(=O)CCCCCCCCC	3.48
CC(C)(Br)C(=O)O	2.42
COCC(C)N (centres undefined)	2.17
CC1=CCCC1=O	2.17
O=[N+]([O-])c1c(F)c(F)c(F)c(F)c1F	5.43
C=CC(=O)OC(C)(C)C	3.27
C=CCBr	3.57
CCCOS(=O)OCCC	3.09
CC(C)CCO	1.96
CC(C)CCOC(=O)c1ccc(O)cc1	4.48
CCC(O)Cc1ccccc1 (centres undefined)	2.84
Nc1cc([N+](=O)[O-])cc(Cl)c1O	4.2
C1CSCCS1	2.89
O=[N+]([O-])c1cccc(Br)c1	4.03
CCCCCCC/C=C/C=O	4.85
Nc1c([N+](=O)[O-])ccc2ncccc12	3.92
C=CCSc1ccccc1	3.69
O=C(CO)c1ccccc1	3.08
Cc1cc2ccccc2o1	3.62

SMILES	48 h IGC50 (-log10 mol/L)
C#CC(O)C(C)CCC (centres undefined)	3.74
CCCOc1ccc(O)cc1	3.52
OCc1ccc(-c2ccccc2)cc1	3.92
C=CC(=O)OCCCC	3.52
C=CC(=O)NCNC(=O)C=C	2.48
C#CC(=O)OCC	4.7
Oc1c(F)c(F)c(F)c(F)c1F	4.63
CC(C)CCC#N	2.21
O=Cc1ccsc1	3.4
CCOC(=O)C=C(OCC)OCC	2.35
CCCCCCC=CCO	3.77
CC(=O)CCc1ccc(O)cc1	2.5
CC=C(C)C(=O)OCC	2.5
Nc1cc(Cl)ccc1O	3.78
CCOC(=O)Cc1ccc(O)c(OC)c1	2.77
O=C(O)CCCCCCCBr	4.32
Brc1ccoc1	2.52
CCC(CC)COC(C)=O	2.88
Cc1cc(Cl)c([N+](=O)[O-])cc1[N+](=O)[O-]	5.33
CCC(C)(C)N	2.3
CCCCS(=O)CCCC	2.74
CC(=O)c1c(C)c[nH]c1C	2.68
CC(C)(Br)[N+](=O)[O-]	4.85
